“And” between values parts separate entries of the source, which are not always exact repeats. Equal entries are not always repeated. Where two headings read alike, the source gives them in different places.
What was measured:
[1] = Stability in microsomes, human; format: in vitro ADME; conditions: for average DEG [%]: human microsomes, with cofactors
Protocol: (§1) The final incubation volume was 500 μL. Two control compounds (verapamil and donepezil) were included for each microsomal species, along with the appropriate vehicle control. The reactions were terminated by transferring 50 μL of incubate to 100 μL methanol containing an internal standard (metoprolol) at appropriate time points (0, 10, 20, 40, 60, and 120 min for the test compound and 0, 5, 10, 20, 40, and 60 min for the control compounds). The termination plates were centrifuged at 4000 x g at 4°C for 30 min to precipitate the protein. The supernatants were then collected for analysis, and LC-MS/MS was used for detection purposes. The system consisted of an Acquity™ Binary Solvent Manager, Acquity™ 4-position heated column manager, 2777 Ultra High Pressure Autosampler, and a Xevo-TQ MS triple quadrupole mass spectrometer (Waters Ltd., Herts, UK). This process was carried out twice.

[2] = Stability in microsomes, rat; format: in vitro ADME; conditions: for average DEG [%]: rat microsomes, with cofactors
Protocol: as §1

OATP1B3 = biological target: T1, OATP1B3 (Homo sapiens, UniProt Q9NPD5); assay: Uptake transporter inhibition assay, OATP1B3; conditions: human, transformed HEK cells expressing OATP1B3, pH 7.4
T1 sequence (Q9NPD5 1-702): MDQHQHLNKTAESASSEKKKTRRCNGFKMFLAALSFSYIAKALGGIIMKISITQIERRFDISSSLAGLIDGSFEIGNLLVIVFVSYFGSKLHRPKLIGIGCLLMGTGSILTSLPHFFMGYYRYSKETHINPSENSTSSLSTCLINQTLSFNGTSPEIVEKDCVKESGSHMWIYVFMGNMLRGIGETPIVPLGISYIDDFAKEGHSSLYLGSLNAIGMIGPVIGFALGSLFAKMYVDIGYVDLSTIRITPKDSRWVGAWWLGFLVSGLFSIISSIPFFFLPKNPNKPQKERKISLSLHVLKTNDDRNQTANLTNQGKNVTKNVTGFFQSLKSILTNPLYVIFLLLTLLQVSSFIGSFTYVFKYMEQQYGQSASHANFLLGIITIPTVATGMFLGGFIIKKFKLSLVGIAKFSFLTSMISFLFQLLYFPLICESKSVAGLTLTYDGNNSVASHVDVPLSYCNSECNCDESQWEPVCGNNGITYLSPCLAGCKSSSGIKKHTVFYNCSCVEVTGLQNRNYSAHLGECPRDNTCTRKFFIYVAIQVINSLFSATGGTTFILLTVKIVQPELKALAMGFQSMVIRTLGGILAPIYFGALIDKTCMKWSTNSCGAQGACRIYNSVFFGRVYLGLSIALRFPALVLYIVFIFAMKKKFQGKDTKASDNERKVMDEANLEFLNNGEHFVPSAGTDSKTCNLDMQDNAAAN
Protocol: For the uptake transporter inhibition assay, cells were washed twice with 100 μL of the appropriate buffer (HK, pH 7.4) for OATP1B1, followed by HBSS (pH 7.4) for (NTCP, OAT1, OAT2v1, OATP1A2, and OATP1B3). Uptake experiments were carried out at 37 ± 1°C in 50 μL of the respective buffer containing the probe substrate and the compound or solvent. […] After the experiment, cells were washed twice with 100 μL of cold appropriate buffer and lysed with 50 μL of 0.1 M NaOH. Radiolabeled probe substrate transport was determined by measuring an aliquot (35 μL) from each well for liquid scintillation counting.

MRP2 = MRP2 (Homo sapiens, UniProt Q92887); assay: Vesicular transport inhibition assay, MRP2; conditions: for Accumulation (counts per minute; CPM) with AMP / Accumulation (counts per minute; CPM) with ATP: MRP2;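 also: membrane vesicles with probe substrate plus 2 mM glutathione, incubated with 4 mM ATP or AMP (AMP as background control), vesicle-retained substrate measured by liquid scintillation counting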;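 as to Accumulation (counts per minute; CPM) with AMP: ATP 4 mM vs AMP background separates transporter uptake from diffusion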;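 as to Accumulation (counts per minute; CPM) with ATP: ATP 4 mM vs AMP background separates transporter uptake from diffusion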
Sequence of MRP2 (Q92887 whole entry, the tested form may be a part): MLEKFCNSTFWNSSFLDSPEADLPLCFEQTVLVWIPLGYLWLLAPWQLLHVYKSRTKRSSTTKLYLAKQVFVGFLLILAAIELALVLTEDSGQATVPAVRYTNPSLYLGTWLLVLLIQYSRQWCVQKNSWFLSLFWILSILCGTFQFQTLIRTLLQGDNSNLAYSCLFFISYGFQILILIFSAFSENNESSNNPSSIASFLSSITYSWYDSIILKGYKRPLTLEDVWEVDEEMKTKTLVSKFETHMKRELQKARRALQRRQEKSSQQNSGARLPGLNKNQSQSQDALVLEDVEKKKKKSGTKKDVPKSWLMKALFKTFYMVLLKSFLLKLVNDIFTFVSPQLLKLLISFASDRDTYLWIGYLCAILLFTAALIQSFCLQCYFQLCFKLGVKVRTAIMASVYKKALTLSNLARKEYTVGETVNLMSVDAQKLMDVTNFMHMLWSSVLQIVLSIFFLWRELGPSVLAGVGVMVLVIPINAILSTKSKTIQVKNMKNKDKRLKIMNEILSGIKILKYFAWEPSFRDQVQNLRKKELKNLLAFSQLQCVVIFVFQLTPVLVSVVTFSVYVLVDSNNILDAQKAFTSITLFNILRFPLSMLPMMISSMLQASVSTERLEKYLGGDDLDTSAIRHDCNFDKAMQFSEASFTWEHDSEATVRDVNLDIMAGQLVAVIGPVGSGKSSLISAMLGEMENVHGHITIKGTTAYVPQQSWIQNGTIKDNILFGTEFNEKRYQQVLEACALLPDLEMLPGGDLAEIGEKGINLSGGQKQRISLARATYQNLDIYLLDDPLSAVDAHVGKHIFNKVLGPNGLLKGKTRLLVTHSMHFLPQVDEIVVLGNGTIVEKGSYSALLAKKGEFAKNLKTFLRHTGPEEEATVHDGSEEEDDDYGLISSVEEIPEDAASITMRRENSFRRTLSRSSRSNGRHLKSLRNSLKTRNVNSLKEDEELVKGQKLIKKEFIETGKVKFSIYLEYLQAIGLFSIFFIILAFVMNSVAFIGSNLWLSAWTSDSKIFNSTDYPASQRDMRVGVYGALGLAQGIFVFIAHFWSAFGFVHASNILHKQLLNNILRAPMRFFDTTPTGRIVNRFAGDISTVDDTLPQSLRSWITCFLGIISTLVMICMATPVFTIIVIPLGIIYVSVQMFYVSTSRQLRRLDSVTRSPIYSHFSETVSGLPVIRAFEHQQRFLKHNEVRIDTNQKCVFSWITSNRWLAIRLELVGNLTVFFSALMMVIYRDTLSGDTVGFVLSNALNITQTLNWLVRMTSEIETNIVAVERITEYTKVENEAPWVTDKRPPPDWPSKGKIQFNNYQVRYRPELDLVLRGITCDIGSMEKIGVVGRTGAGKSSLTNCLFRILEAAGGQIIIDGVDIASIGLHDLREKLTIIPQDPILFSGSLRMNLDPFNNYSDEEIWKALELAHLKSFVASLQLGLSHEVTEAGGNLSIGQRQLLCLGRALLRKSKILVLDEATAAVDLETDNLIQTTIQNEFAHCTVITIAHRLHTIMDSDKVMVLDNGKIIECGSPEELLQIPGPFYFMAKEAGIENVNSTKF
Protocol: In the vesicular transport inhibition assay (for BSEP, MRP) compounds were incubated with membrane vesicle preparations and the probe substrate. Incubations were carried out in the presence of 4 mM ATP or AMP to distinguish between transporter-mediated uptake and passive diffusion into the vesicles. For MRP2 and MRP3, reactions were carried out in the presence of 2 mM glutathione. Compounds were added to the reaction mixture in 0.75 μL of solvent (1% of the final incubation volume). […] Reactions were initiated by the addition of 25 μL of 12 mM MgATP (or 12 mM AMP in assay buffer as a background control) and preincubated separately. Reactions were quenched by the addition of 200 μL of ice-cold washing buffer and immediate filtration via glass fiber filters mounted on a 96-well plate (filter plate). The filters were washed (5 × 200 μL of ice-cold washing buffer), dried, and the amount of substrate inside the filtered vesicles was determined by liquid scintillation counting.

[3] = Viability assay, HepG2 cells, MTT test, 48 h; format: cell-based, human; conditions: human, HepG2 cells, sheet Fig1 panel B (HepG2), 48 h, replicates, read-out: viability, normalized to DMSO-treated controls
Protocol: To study the viability of the liver cells, 5 × 10^3 HepG2 (ATCC®) or human primary cells (ThermoFisher Scientific, USA) were seeded in 100 μL of DMEM media (Gibco; Thermo Fisher Scientific, USA) supplemented with fetal bovine serum (FBS)- in a 96-well plate. […] The experiments were performed in triplicates.

[4] = Single-dose pharmacokinetics in rats (p.o. and i.v.); format: in vivo, rat; parameters: plasma conc: unit not given here
[5] = Rat (Sprague Dawley) microsomes, mean n = 2
[6] = rat, dose 200 mg/kg, Day 1, individual animals, 200 mg/kg
[7] = summary comparison CPL207280 vs TAK-875

## CC#C[C@@H](CC(=O)O)c1ccc(OCC(C)=C(C)C)cc1 [CPL207280]
[1]; Human microsomes, mean n = 2
  half-life at 3 μM: 28 min
  microsomal CLint at 3 μM: 49.2 µL/min/mg
[1]; based on the Clint values from different species, reference ranges by Cyprotex (human range given in legend)
  stability classification in microsomes: unstable compound
[1]; 0 min
  average DEG [%]: 100.0%
[1]; 20 min
  average DEG [%]: 45.8942%
[1]; 40 min
  average DEG [%]: 32.2635%
[1]; 60 min
  average DEG [%]: 21.8%
[2]; [5]
  half-life at 3 μM: 69 min
  microsomal CLint at 3 μM: 21.1 µL/min/mg
[2]; 0 min
  average DEG [%]: 100.0%
[2]; 20 min
  average DEG [%]: 80.9%
[2]; 40 min
  average DEG [%]: 64.9%
[2]; 60 min
  average DEG [%]: 55.0%
OATP1B3
  IC50: 42.9 µM
MRP2; conc 0.10 µM
  Accumulation (counts per minute; CPM) with AMP: 198 CPM and 164 CPM
  Accumulation (counts per minute; CPM) with ATP: 2936 CPM and 2989 CPM
MRP2; conc 1.00 µM
  Accumulation (counts per minute; CPM) with AMP: 160 CPM and 140 CPM
  Accumulation (counts per minute; CPM) with ATP: 2976 CPM and 3333 CPM
MRP2; conc 3.00 µM
  Accumulation (counts per minute; CPM) with AMP: 225 CPM and 205 CPM
  Accumulation (counts per minute; CPM) with ATP: 3200 CPM and 3253 CPM
MRP2; conc 10.00 µM
  Accumulation (counts per minute; CPM) with AMP: 218 CPM and 206 CPM
  Accumulation (counts per minute; CPM) with ATP: 3353 CPM and 3206 CPM
MRP2; conc 30.00 µM
  Accumulation (counts per minute; CPM) with AMP: 203 CPM and 192 CPM
  Accumulation (counts per minute; CPM) with ATP: 3191 CPM and 3541 CPM
MRP2; conc 100.00 µM
  Accumulation (counts per minute; CPM) with AMP: 195 CPM and 185 CPM
  Accumulation (counts per minute; CPM) with ATP: 3680 CPM and 3660 CPM
MRP2; conc 300.00 µM
  Accumulation (counts per minute; CPM) with AMP: 129 CPM and 125 CPM
  Accumulation (counts per minute; CPM) with ATP: 3852 CPM and 4100 CPM
MRP2; vesicles, up to 300μM, n = 2
  MRP2 Estimated IC50 (95% CI of IC50): no affinity
[3]; 3.125 uM
  viability at 48 h, 3.125 µM: 98.6%
[3]; 6.25 uM
  viability at 48 h, 6.25 µM: 113%
[3]; 25 uM
  viability at 48 h, 25 µM: 104%
[3]; 50 uM
  viability at 48 h, 50 µM: 109%
[4]; Wistar Han, rat, plasma, oral, 200 mg/kg, rat, dose 200 mg/kg, Day 1, individual animals, read-out: exposure - AUC
  AUC: 1240 µg·h/mL
[4]; rat, 3 mg/kg i.v., 0.08 h, single animals, 3 mg/kg
  plasma conc: 18185.2 and 14086.9 and 17991
[4]; rat, 3 mg/kg i.v., 0.5 h, single animals, 3 mg/kg
  plasma conc: 13324.4 and 11131.5 and 13374.4
[4]; rat, 3 mg/kg i.v., 1 h, single animals, 3 mg/kg
  plasma conc: 9899.4 and 7427.8 and 10049.5
[4]; rat, 3 mg/kg i.v., 2 h, single animals, 3 mg/kg
  plasma conc: 3412.2 and 2931.7 and 2551.4
[4]; rat, 3 mg/kg i.v., 4 h, single animals, 3 mg/kg
  plasma conc: 1459.2 and 957.7 and 1370.6
[4]; rat, 3 mg/kg i.v., 7 h, single animals, 3 mg/kg
  plasma conc: 919.9 and 275.5 and 163.6 and 442.9
[4]; rat, 3 mg/kg i.v., 12 h, single animals, 3 mg/kg
  plasma conc: 109.4 and 40.7 and 9.1 and 38.7
[4]; rat, 3 mg/kg p.o., 0.5 h, single animals, 3 mg/kg
  plasma conc: 1251.2 and 962.3 and 1047.3 and 2942.9 and 2148.4
[4]; rat, 3 mg/kg p.o., 1 h, single animals, 3 mg/kg
  plasma conc: 1116.7 and 1016.5 and 1560.5 and 2895.7 and 1904.8
[4]; rat, 3 mg/kg p.o., 2 h, single animals, 3 mg/kg
  plasma conc: 850.9 and 932.5 and 1176.4 and 3463.8 and 1438.7
[4]; rat, 3 mg/kg p.o., 4 h, single animals, 3 mg/kg
  plasma conc: 878.1 and 1000.4 and 1366.6 and 4024.4 and 840.4
[4]; rat, 3 mg/kg p.o., 8 h, single animals, 3 mg/kg
  plasma conc: 569.6 and 2137.2 and 517.2 and 1993.4 and 909.2
[4]; rat, 3 mg/kg p.o., 12 h, single animals, 3 mg/kg
  plasma conc: 324.7 and 347.6 and 456.6 and 204.4 and 474.2
[4]; rat, 3 mg/kg p.o., 24 h, single animals, 3 mg/kg
  plasma conc: 48.1 and 66.5 and 10.8 and 7 and 230.9
[4]; [6]
  Cmax: 183.679 µg/mL and 165.539 µg/mL and 190.632 µg/mL and 189.701 µg/mL and 159.39 µg/mL
  exposure - AUC: 1896 µg·h/mL and 1692 µg·h/mL and 1420 µg·h/mL and 1892 µg·h/mL and 1506 µg·h/mL
[4]; rat, plasma, 200 mg/kg, rat, dose 200 mg/kg, Day 1, individual animals, read-out: Cmax
  Cmax: 198 µg/mL
[4]; rat, plasma, iv, 3 mg/kg, rat, 3 mg/kg i.v., 0.08 h, single animals, read-out: plasma conc
  concentration at 0.08 h: 19.2 µg/mL
[4]; rat, plasma, iv, 3 mg/kg, rat, 3 mg/kg i.v., 0.5 h, single animals, read-out: plasma conc
  concentration at 0.5 h: 16.3 µg/mL
[4]; rat, plasma, iv, 3 mg/kg, rat, 3 mg/kg i.v., 1 h, single animals, read-out: plasma conc
  concentration at 1 h: 10.9 µg/mL
[4]; rat, plasma, iv, 3 mg/kg, rat, 3 mg/kg i.v., 2 h, single animals, read-out: plasma conc
  concentration at 2 h: 3.72 µg/mL
[4]; rat, plasma, iv, 3 mg/kg, rat, 3 mg/kg i.v., 4 h, single animals, read-out: plasma conc
  concentration at 4 h: 1.57 µg/mL
[4]; rat, plasma, iv, 3 mg/kg, rats, 3 mg/kg i.v.
  Tmax: 4.98 min
[4]; rat, plasma, iv, 3 mg/kg, rats, 3 mg/kg i.v., n = 5, read-out: Cmax
  Cmax: 17.4 ± 2.25 µg/mL
[4]; rat, plasma, iv, 3 mg/kg, rats, 3 mg/kg i.v., read-out: AUC
  AUC: 27.1 ± 1.62 µg·h/mL
[4]; rat, plasma, oral, rats, 3 mg/kg p.o. vs i.v., read-out: F (bioavailability)
  bioavailability: 63%
[4]; rat, plasma, po, 3 mg/kg, rats, 3 mg/kg p.o.
  Tmax: 60 min
[4]; rat, plasma, po, 3 mg/kg, rats, 3 mg/kg p.o., read-out: AUC
  AUC: 17.6 ± 4.08 µg·h/mL
[4]; rat, plasma, rats, 3 mg/kg
  Vd: 0.2 ± 0.01 L/kg
  k el: 0.000144 s⁻¹
[4]; rats, 3 mg/kg
  greater Kel than TAK-875: 2 x
[4]; [7]
  Bioavailability in rats: >
  Exposure in rat plasma for the same dose: ≥
